According to patent US9695462B2, “Method for evaluation of drug efficacy of a medicine having a therapeutic or preventive effect against a disease related to EL activity and a method for screening an inhibitor of EL activity” (SHIONOGI & CO., LTD., priority 2012, dated 2017):

Molecular target: T1, mouse EL (Mus musculus, UniProt Q9WVG5)
T1 construct: made in house; host or cells: Freestyle 293F cells (pcDNA-DEST40 vector)
T1 sequence (Q9WVG5 21-500): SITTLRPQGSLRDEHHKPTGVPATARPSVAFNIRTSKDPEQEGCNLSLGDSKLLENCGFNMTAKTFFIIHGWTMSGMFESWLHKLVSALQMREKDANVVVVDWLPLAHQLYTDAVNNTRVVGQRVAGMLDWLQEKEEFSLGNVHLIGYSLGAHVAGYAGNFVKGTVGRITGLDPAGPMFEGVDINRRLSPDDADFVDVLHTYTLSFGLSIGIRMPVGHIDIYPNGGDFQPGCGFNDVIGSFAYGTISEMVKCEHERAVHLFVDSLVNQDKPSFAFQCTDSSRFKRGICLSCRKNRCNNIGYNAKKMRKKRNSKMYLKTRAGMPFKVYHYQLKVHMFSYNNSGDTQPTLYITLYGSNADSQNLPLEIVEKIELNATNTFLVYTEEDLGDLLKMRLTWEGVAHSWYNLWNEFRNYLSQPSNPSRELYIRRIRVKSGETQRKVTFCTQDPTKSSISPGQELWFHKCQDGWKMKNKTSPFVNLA
Test: Inhibition of mouse EL activity using phosphatidylinositol-HDL as a substrate (NEFA production)
Assay type: biochemical
Settings: 37° C. for 2 hr, FIG. 5
Experimental: Phosphatidylinositol (Avanti Polar Lipids Inc.) in chloroform was collected the necessary amount, which was completely evaporated the solvent to dryness under nitrogen. After addition of PBS, phosphatidylinositol-HDL induced phosphatidylinositol (2.5 mg/ml) into HDL (5 mg/ml) was prepared by mixing phosphatidylinositol vesicle prepared by sonication on ice with human HDL (Athens Research & Technology, Inc.) and incubating at 4° C. for 24 hr. The pcDNA-DEST40 (Invitrogen Corp.) cloned DNA encoding mouse EL was transfected into Freestyle 293F cells and the cells were cultured at 37° C. for 2 days in an atmosphere of 8% CO2. The cells were collected by centrifugation of the culture medium, suspended in Freestyle 293 Expression Medium (Invitrogen Corp.) containing 20 U/ml heparin and incubated at 37° C. for 45 min. After that, the supernatant obtained by removing the cells by centrifugation was used as mouse EL enzyme solution. […] After reaction at 37° C. for 2 hr, the amount of NEFA produced from substrate by EL was measured with NEFA C-test Wako (Wako Pure Chemical Industries, Ltd.) and the amount of NEFA (absorbance) was assumed an index of enzyme activity. The enzyme activity was calculated by subtracting the background value equivalent to the amount of endogenous NEFA without mouse EL enzyme solution from the value measured in enzyme reaction of EL (FIG. 4).

## CCCCCCCCCCC[C@@H](C[C@@H]1OC(=O)[C@H]1CCCCCC)OC(=O)[C@H](CC(C)C)NC=O [orlistat]
  inhibitory activity against mouse EL (inhibition rate): dose-dependent inhibition
